# Like-named read-outs stand apart in the source and are kept apart here.
# Tests used:
# [1] = tested on: human osteoporotic patients; conditions: humans; cited from earlier work
# [2] = biological target: T1, vitamin D receptor (VDR) (Homo sapiens, UniProt P11473); assay: vitamin D-dependent transcriptional activation: growth hormone production in transfected COS-1 cells; type: cell-based; conditions: inducer molar concentration 10^-9; total minus ethanol control
# T1 construct: RXR partner endogenous (monkey)
# T1 sequence (P11473 1-427): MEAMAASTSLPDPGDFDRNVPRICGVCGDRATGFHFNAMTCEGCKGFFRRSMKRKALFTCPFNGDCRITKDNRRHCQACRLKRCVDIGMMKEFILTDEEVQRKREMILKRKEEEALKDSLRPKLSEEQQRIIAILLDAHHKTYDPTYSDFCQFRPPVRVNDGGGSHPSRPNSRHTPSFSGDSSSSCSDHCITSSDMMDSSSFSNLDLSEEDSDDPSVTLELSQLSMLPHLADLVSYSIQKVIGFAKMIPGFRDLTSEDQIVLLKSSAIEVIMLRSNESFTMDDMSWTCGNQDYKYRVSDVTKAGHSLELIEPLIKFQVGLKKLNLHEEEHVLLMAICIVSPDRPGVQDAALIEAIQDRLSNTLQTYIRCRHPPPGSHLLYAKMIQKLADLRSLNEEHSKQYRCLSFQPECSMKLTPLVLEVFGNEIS
# Method: The biological activity in vitro of chemically synthesized 1α,24(S)-(OH)2 D2 and 1α,24(R)-(OH)2 D2 was measured using a vitamin D-dependent transcriptional activation model system in which a vitamin D receptor (VDR)-expressing plasmid pSG5-hVDR1/3and a plasmid p(CT4)^4 TKGH containing a Growth Hormone (GH)-gene, under the control of a vitamin D-responsive element (VDRE) were co-transfected into Green monkey kidney, COS-1 cells. DNA's for these two vectors were supplied by Dr. Mark Haussler, Department of Biochemistry, University of Arizona, Tucson, Ariz.
# Tranfected cells were incubated with vitamin D metabolites and growth hormone production was measured.
# [3] = blood levels of metabolites in osteoporotic women administered 1α-OH-D2; type: in vivo, human; conditions: one day after a single 2 μg dose of 1α-OH-D2, women
# Method: An increase in the production of 1α,24(S)-(OH)2 D2 relative to 1α,25-(OH)2 D2 has also been observed by the present inventors in human females who received 1α-OH-D2 as part of an investigation of that drug for the treatment of osteoporosis. Following either a single dose of 2 μg of 1α-OH-D2 or daily doses of 8 μg/day for one week, blood was collected and analyzed for the metabolites 1α,24(S)-(OH)2 D2 and 1α,25-(OH)2 D2. Lipid was extracted from the blood, and the metabolites were purified by HPLC using standard methods and quantified with the radioreceptor assay produced by Incstar (Stillwater, Minn.). One day after a single 2 μg dose, the level of 1α,24(S)-(OH)2 D2 was undetectable with the 1α,25-(OH)2 D2 level being approximately 11 pg/ml. In contrast, one day following the last dose of 8 μg, the level of 1α,24(S)-(OH)2 D2 averaged 9 pg/ml with the 1α,25-(OH)2 D2 level averaging 30 pg/ml.
# [4] = type: in vivo, rat
# Method: Vitamin D2 or 24-OH-D2 was administered (either oral or intraperitoneal supplementation) to vitamin D-deficient rats. Lipid extracts of the plasma were prepared and the metabolites purified by the method of Horst et al. (Horst, A. L., Koszewski, N. J. and Reinhardt, T. A., Biochem., 29:578-82 (1990)) described below for synthesyzing standard biological 1α,24-(OH)2 D2.
# Standard biological 1α,24-(OH)2 D2 was synthesized in vitro from 24-OH-D2 by incubating 10 μg of 24-OH-D2 in flask containing 5 ml of 20% kidney homogenates made from vitamin D-deficient chicks. The product of this reaction was isolated by HPLC and identified by mass spectrometry.
# [5] = tested on: 1,25-(OH)2 D3 receptor site; conditions: Ishizuka et al., Steroids 1981, 1982; cited from earlier work
smiles,measurement,setting,value
"C=C1/C(=C\C=C2/CCC[C@]3(C)[C@@H]([C@H](C)CCCC(C)C)CC[C@@H]23)C[C@@H](O)C[C@@H]1O [1α-(OH) D3, 1α-hydroxy vitamin D3]",tolerability of dosage levels of 2.0 μg/day or greater,[1],not safely obtained
"C=C1/C(=C\C=C2/CCC[C@]3(C)[C@@H]([C@H](C)/C=C/[C@](C)(O)C(C)C)CC[C@@H]23)C[C@@H](O)C[C@@H]1O [1α,24(R)-(OH)2 D2, 1α,24(R)-dihydroxy vitamin D2]",Net vitamin D-inducible GH-production,[2],36 ng/mL
"C=C1/C(=C\C=C2/CCC[C@]3(C)[C@@H]([C@H](C)/C=C/[C@H](C)C(C)C)CC[C@@H]23)C[C@@H](O)C[C@@H]1O [1α-OH-D2, 1α-hydroxy vitamin D2]","blood level of metabolite 1α,24(S)-(OH)2 D2",[3],undetectable
C=C1CC[C@H](O)C/C1=C/C=C1\CCC[C@]2(C)[C@@H]([C@H](C)CCCC(C)C)CC[C@@H]12 [vitamin D3],24-hydroxylated metabolite in plasma after administration,[4]; comparable vitamin D-deficient rats,no detectable 24-OH-D3
C=C1CC[C@H](O)C/C1=C/C=C1\CCC[C@]2(C)[C@@H]([C@H](C)/C=C/[C@H](C)C(C)C)CC[C@@H]12 [vitamin D2],"plasma metabolite 1α,24-(OH)2 D2 found after administration","[4]; vitamin D-deficient rats, oral or intraperitoneal, HPLC of plasma lipid extracts","co-migrated on HPLC with the standard 1α,24-(OH)2 D2"
"C=C1CC[C@H](O)C/C1=C/C=C1\CCC[C@]2(C)[C@@H]([C@H](C)/C=C/C(C)(O)C(C)C)CC[C@@H]12 (stereo partly shown) [24-OH-D2, 24-hydroxyvitamin D2]","plasma metabolite 1α,24-(OH)2 D2 found after administration","[4]; rat, in vivo","co-migrated on HPLC with the standard 1α,24-(OH)2 D2"
"C=C1/C(=C\C=C2/CCC[C@]3(C)[C@@H]([C@H](C)CC[C@@H](O)C(C)C)CC[C@@H]23)C[C@@H](O)C[C@@H]1O [1α,24(R)-(OH)2 D3, 1α,24(R)-dihydroxyvitamin D3]","binding to the 1,25-(OH)2 D3 receptor site relative to 1,25-(OH)2 D3",[5],"more tightly than does 1,25-(OH)2 D3 itself"
